In a melting point compilation (Tetko et al.; mined from patent text by program, amines drawn as free bases though some values may be those of a salt) one finds melting point data, which are given here for 89 compounds.

Molecules are shown by their SMILES. Bounds are passed on as bounds.

Turning to `CCOC(=O)N1CCc2nc3cc(C)ccc3c(C)c2CC1`, the melting point (commonly the temperature of the solid-liquid transition) turned out to be 121 °C.

Compound `COC(=O)c1cc(-c2ccc(Cl)cc2)nn1Cc1ccc(Cl)cc1Cl` yielded a melting point of 120 °C.

In turn, `CC(=O)OCCCC(=C(c1ccccc1)c1ccccc1)c1ccccc1` showed a melting point of 80 to 81 °C.

On to `CCOC(=O)c1cc(OC)c2c(C)c(CCN(CC)CC)c(=O)oc2c1Br`, for which the melting point lay in the range of 150 to 151 °C.

On to `CC(CCCO)C1CCC2C3CCC4CC(O)CCC4(C)C3CC(O)C12C` (centres undefined), for which the melting point was in the range of 110 to 116 °C.

`COC(=O)c1cc(-c2cc(-c3ccccc3O)nc(NC(=O)c3cccs3)c2C#N)ccc1OC`: the melting point was 271 to 273 °C.

With `COC(=N)COc1ccc(OC)cc1`, the melting point was 95 to 96 °C.

`Cc1oc(C=Cc2cccc(C(F)(F)F)c2)nc1CCl`: the melting point was 99 to 100 °C.

On to `N#Cc1cc(Oc2ccc(Cl)c(Cl)c2)cnc1Cl`, for which the melting point was 76 to 78 °C.

`Cc1nn(-c2ccccc2)c(-c2ccccc2)c1CC(=O)O` came in with a melting point of 159 to 161 °C.

Consider `CCCNCCC1Cc2ccc(C3=NNC(=O)CC3)cc2C1` (centres undefined), for which the melting point fell in the range of 123 to 124 °C.

`COc1ccc(CCN2C(=O)OC3(CCN(Cc4ccccc4)CC3)C2(C)O)cc1OC` (centres undefined) displayed a melting point of 111 to 120 °C.

In turn, `CC(C)(O)c1ccc(-c2ccc(=O)n(Cc3ccc(Cl)cc3)c2)cc1` gave a melting point of 157 °C.

Take `Cc1cccc2nc(NC(=O)c3ccc(C4(C(=O)O)CCC4)cc3)cn12`: the melting point is 272 °C.

`Cc1c(=O)o[n-][n+]1CCSC12CC3CC(CC(C3)C1)C2` had a melting point of 92 to 93 °C.

The compound `Cn1nc(-c2cnc3[nH]cc(C(=O)NC4CCOC4)c3n2)c2ccc(Cl)cc21` (centres undefined) yielded a melting point of 345 to 347 °C.

For `COc1cc(OC)c(-c2cc3ccccc3n2C)cc1C=CC(=O)c1ccc(S(=O)(=O)NCCN2CCOCC2)cc1`, the melting point was in the range of 167 to 168 °C.

With `CC(C)(C)OC(=O)CN(C(=O)CNC(=O)c1ccc2ccccc2n1)c1ccccc1`, the melting point was 114 °C.

For `CCOCc1nc2c(N)nc3cc(OCc4ccc(C)cc4)ccc3c2n1CC(C)C`, the melting point was 209 to 210 °C.

`CCOC(=O)CC(=O)NNc1ncc(-c2ccccc2)nc1CC(C)C` displayed a melting point of 116 to 118 °C.

As to `CC(=O)OC1CC2CCC3C4CCC(C(C)=O)C4(C)CC(=O)C3C2(C)CC1Br` (centres undefined), the melting point fell in the range of 154 to 156 °C.

Compound `CCCCCCCCCCCCCCCCSCC(CN)Oc1ccon1` (centres undefined) showed a melting point of 73 to 74 °C.

With `CN(SC1CCCCCCC1Cl)C(=O)Nc1ccc(Cl)c(Cl)c1` (centres undefined), the melting point lay in the range of 90 to 91 °C.

The compound `CSCCCCCn1c(C)nc2c(N)nc(C)c(C)c21` returned a melting point of 121 to 122 °C.

On to `Clc1ccc(C=NC(c2ccccc2)c2ccccc2)cc1`, for which the melting point was in the range of 83 to 84 °C.

Regarding `N#Cc1cc(CC(=O)O)cc2c1NC(C(F)(F)F)CC2` (centres undefined), the melting point lay in the range of 148 to 149 °C.

On to `CCOC(=O)/C=C/c1cnn(Cc2ccc(OCc3nc(-c4ccccc4)oc3C)cc2)c1`, for which the melting point lay within 112 to 113 °C.

`CSC(=C[N+](=O)[O-])NCCCBr` displayed a melting point of 92 to 92.5 °C.

Turning to `CC(=O)Nc1ccc(-c2cccc(-n3c(-c4cccnc4N)nc4cc(-c5cccc(NC(C)=O)c5)c(-c5cccnc5)nc43)c2)cc1`, the melting point was 166 to 168 °C.

For the compound `CCC#CCCOc1ccc(/C=C/C(=O)Nc2ccccc2C(=O)O)cc1OC`, the melting point was 165 to 166 °C.

The compound `Cc1c(C)c2c(c(C)c1O)CCC(C)(C(=O)N1CC(Oc3ccc(NC(=O)OC(C)(C)C)cc3)C1)O2` (centres undefined) had a melting point of 182 to 183 °C.

The compound `COc1cc2ncnc(N3CCN(C(=O)Nc4ccc(CN5CCCCC5)cc4)CC3)c2cc1OC` returned a melting point of 122 to 123 °C.

As to `NC(=O)c1nccc(-c2ccc(Oc3ccc(F)cc3)cc2)n1`, the melting point lay within 180 to 182 °C.

Take `Cc1nc(NCC(C)C)nc(N2CCc3ccccc3C2C)c1C` (centres undefined): the melting point is 93 to 95 °C.

`Cc1nnc(-c2ccc3occ(-c4ccc(C(F)(F)F)cc4)c3c2)o1`: the melting point fell in the range of 190 to 191 °C.

Regarding `CCC(=O)Nc1c(C(=O)c2cccc(Cl)c2)[nH]c2ccc(Cl)cc12`, the melting point is 206 to 208 °C.

In the case of `CC(C)Cc1ccc(C(C)COC(=O)c2cc(O)c3c(c2)C(=O)c2cccc(O)c2C3=O)cc1` (centres undefined), the melting point was 115 °C.

For `CCCCc1nc(Cl)c(CC(=O)O)c(Cc2ccc(-c3ccccc3C(=O)O)cc2)n1`, the melting point fell in the range of 100 to 110 °C.

As to `Cc1cccc(-c2nc(=O)c3ccccc3s2)n1`, the melting point came to 170 °C.

`CC1(C)N=C(c2ccccc2Cl)c2cc([N+](=O)[O-])cc(Cl)c2NC1=O` showed a melting point of 121 °C.

As for `Cc1nn(CCC(C)O)c(-c2ccc(F)cc2)c1-c1ccc2c(c1)NC(=O)CO2` (centres undefined), the melting point was in the range of 158 to 159 °C.

`O=[N+]([O-])c1cccc(C2C3=C(CCCS3)NC3=C2SCCC3)c1` gave a melting point greater than 260 °C.

With `COC(=O)c1cc(C(C)O)c(C(F)(F)F)cc1NC(C)=O` (centres undefined), the melting point is 120 to 122 °C.

Turning to `CCOC(=O)C1=C(C)NC(CO)=C(C(=O)OCC)C1c1cccs1` (centres undefined), the melting point is 125 to 126 °C.

The compound `N#Cc1nc(C=Cc2cnn(-c3c(Cl)cc(C(F)(F)F)cc3Cl)n2)[nH]c1C#N` returned a melting point of 111 to 112 °C.

Regarding `C=CCOc1ccccc1-c1nc2nc(SC)ncc2c(=O)[nH]1`, the melting point was 205 to 206 °C.

In the case of `COc1nc(SC)cc2cnc(-c3ccccc3)n12`, the melting point was determined as 134 °C.

Turning to `C=Cc1cc(O)cc2cc(-c3ccc(O)cc3)oc12`, the melting point lay within 182 to 184 °C.

The compound `N#Cc1cn(Nc2c(Cl)cc(Cl)cc2Cl)c(=O)[nH]c1=O` gave a melting point greater than 320 °C.

Compound `O=C(Cc1noc2ccccc12)N[C@H]1CC[C@H](CCN2CCC(c3cccc4c3CCO4)CC2)CC1` returned a melting point of 214 °C.

Take `CCC1(O)NC(=O)C2(c3ccc(Cl)cc3)CC12` (centres undefined): the melting point was in the range of 117 to 124 °C.

The compound `O=C(NCCO)c1cccc(-c2ccc(F)c3cc(Cc4cccc(C(F)(F)F)c4)oc23)c1` showed a melting point of 159 to 160 °C.

On to `CCC(C)Sc1cc(C(=O)O)cc(N)c1Oc1ccccc1` (centres undefined), for which the melting point was 157 to 159 °C.

Consider `CCCNC1CCc2nc(N)sc2C1` (centres undefined), for which the melting point was in the range of 145 to 150 °C.

`O=C(O)c1cn(-c2ccc(F)cn2)c2nc(Cl)c(F)cc2c1=O` had a melting point of 234 to 238 °C.

Compound `COc1ccc2c(c1)C=C(C(=O)O)CCO2` yielded a melting point of 176 to 177 °C.

Compound `Cc1ccc(-c2cn(C)cc(-c3ccccc3)c2=O)c(C)c1` registered a melting point of 153 to 155 °C.

`Nc1nc(NCCc2ccccc2OCc2ccccc2)nc2nc(-c3ccco3)nn12` gave a melting point of 151 to 153 °C.

`CCn1cnc(N2CCc3ccccc3CC2)c(C#N)c1=O` displayed a melting point of 138 to 140 °C.

Regarding `CC1(C)C2CCC1(C)C(O)(c1ccccn1)C2` (centres undefined), the melting point fell in the range of 60 to 61 °C.

Turning to `CCNc1nnc(C(C)(C)C)c(=O)n1N`, the melting point is 177 °C.

In turn, `CC(C)c1nn(-c2ccccc2)c(-c2ccc(F)cc2)c1CC[C@H]1C[C@H](O)CC(=O)O1` (relative stereo) registered a melting point of 157 to 159 °C.

For the compound `CC(C)N1C(=O)N(c2ccccc2Cl)CSC1=NC(C)(C)C`, the melting point was in the range of 88 to 89 °C.

`CC1N=C2N(Cc3ccc(Cl)cc3)c3[nH]cnc3C(=O)N2C1C` (centres undefined): the melting point fell in the range of 252 to 254 °C.

For the compound `COCCC(=O)N[C@H]1CC[C@H](CCN2CCN(c3ncc(C)c4occc34)CC2)CC1`, the melting point amounted to 177 °C.

As for `O=Cc1cc2c(s1)CCc1cc(=O)n(-c3ccc(Cl)cc3)nc1-2`, the melting point was 242 to 244 °C.

Consider `COC(=O)c1ccc(CCC(O)CCc2ccc(C(=O)OC)cc2)cc1`, for which the melting point was in the range of 129 to 130 °C.

In turn, `Cc1cccc2nc(-c3ccc(Cl)cc3)c(C(N)=O)c(=O)n12` gave a melting point of 202 to 204 °C.

`CCOC(=O)Cc1sc(SCc2cc(O)nc(C)n2)nc1C` came in with a melting point of 131 to 132 °C.

Compound `COc1ccc2c(=O)c(S(C)(=O)=O)cn(C)c2c1` gave a melting point of 212 to 214 °C.

On to `CC(C)Oc1ccccc1N1CCN(Cc2cccc(CC3NC(=O)NC3=O)c2)CC1` (centres undefined), for which the melting point was 178 to 181 °C.

For `c1cc(-n2ccnc2)cc(-n2cnc3cc(-c4ccco4)ccc32)c1`, the melting point is 175 to 177 °C.

Turning to `CCOC(=O)c1cn(C2CC2)c2nc(N3C[C@@H](CNC(C)=O)[C@@H](Cl)C3)c(F)cc2c1=O` (relative stereo), the melting point was in the range of 213 to 214 °C.

For `CCOC(=O)c1cn(C)c2cnc3cc(F)c(N4CCCC(C)(C)C4)cc3c2c1=O`, the melting point fell in the range of 218 to 220 °C.

`N#CN=c1[nH]c2cc(Cl)c(Cl)c([N+](=O)[O-])c2[nH]c1=O` returned a melting point of 280 to 285 °C.

As for `Nc1ccc(-c2cn(CCF)nn2)cc1`, the melting point is 79 to 82 °C.

In the case of `COc1ccc(C(=O)c2ccc(Oc3ccc(Cl)cc3)cn2)cc1OC`, the melting point was 145 to 147 °C.

The compound `COC(=O)c1ccc(CSc2nnc(-c3ccc4c(c3)CCO4)o2)cc1` gave a melting point of 125 to 126 °C.

`O=C(O)c1ccccc1-c1ccc(C(F)(F)F)c(Cl)c1` yielded a melting point of 181 to 184 °C.

As for `O=c1[nH]c(=O)c2ccncc2[nH]1`, the melting point came out at 365 °C.

For the compound `CCOC(=O)C1=Cc2cc(Cl)c(Oc3ccc(OC)cc3)cc2OC1C(F)(F)F` (centres undefined), the melting point was in the range of 116 to 117 °C.

Turning to `c1ccc(COc2cccc(-n3cnnn3)c2)cc1`, the melting point was in the range of 85 to 86 °C.

`Cc1cc2c(cc1Oc1nnnn1-c1ccccc1)[C@@H](c1ccccc1)CN(C)CC2`: the melting point was in the range of 140 to 142 °C.

With `N#Cc1cc(-c2ccc(Cl)cc2)c(Br)[nH]1`, the melting point fell in the range of 202 to 204 °C.

On to `Nc1c(Cl)cc(C2=NNC(=O)Cc3cc4c(cc32)OCO4)cc1Cl`, for which the melting point lay within 149 to 151 °C.

On to `CSc1nn2c(N)c3c(nc2c1S(=O)(=O)c1ccccc1)CCC3`, for which the melting point was greater than 230 °C.

For `CC1CC(=O)NN=C1c1ccc(NC(=O)C(C)(C)C#N)cc1` (centres undefined), the melting point lay in the range of 225 to 227 °C.

Compound `CC(C)(C)OC(=O)c1ccc(C=Cc2ccc(C(=O)OC(C)(C)C)cc2)cc1` had a melting point of 126 to 127 °C.

Regarding `CCOC(=O)c1cc(=O)c2c(ccc3nc(C(=O)OC)cc(Cl)c32)o1`, the melting point came to 193 °C.
